This note sets out measurements from article PMC7595202, “Indole hydrazide compound ZJQ-24 inhibits angiogenesis and induces apoptosis cell death through abrogation of AKT/mTOR pathway in hepatocellular carcinoma” (Cell Death & Disease, 2020).

The target of the assay is mTOR (Homo sapiens, UniProt P42345). Kind of assay: in vitro kinase activity assay at ATP near Km; also anti-Raptor immunoprecipitated mTORC1 kinase assay (HepG2/HUH-7) with GST-S6K1 substrate. The class given is biochemical.

`COc1ccc(C=NNC(=O)c2cc3cc(Cl)ccc3[nH]2)c(OC)c1` [ZJQ-24, 5-chloro-N’-(2,4-dimethoxybenzylidene)−1H-indole-2-carbohydrazide]: the EC50 was 40.6 µM.
